Usually pKa stands for the pH at which an ionisable group is half protonated.

The record followed here is ChEMBL document CHEMBL3400044, “Minimization of drug-drug interaction risk and candidate selection in a natural product-based class of gamma-secretase modulators” (Bioorg Med Chem Lett, 2015).

The series is described as follows: physchem.
`CCO[C@@H]([C@H]1C[C@@H](C)[C@H]2[C@H](O1)[C@H](O)[C@@]1(C)[C@@H]3CC[C@H]4C(C)(C)[C@@H](O[C@H]5CN(C6COC6)CCO5)CC[C@@]45C[C@@]35CC[C@]21C)C(C)(C)O` showed a pKa of 5.1.

`CCO[C@@H]([C@H]1C[C@@H](C)[C@H]2[C@H](O1)[C@H](O)[C@@]1(C)[C@@H]3CC[C@H]4C(C)(C)[C@@H](O[C@H]5CN(C)CCO5)CC[C@@]45C[C@@]35CC[C@]21C)C(C)(C)O` registered a pKa of 7.2.

As to `CCO[C@@H]([C@H]1C[C@@H](C)[C@H]2[C@H](O1)[C@H](O)[C@@]1(C)[C@@H]3CC[C@H]4C(C)(C)[C@@H](O[C@H]5CN(CCN6CCC6)CCO5)CC[C@@]45C[C@@]35CC[C@]21C)C(C)(C)O`, the pKa stood at 9.4.

`CCO[C@@H]([C@H]1C[C@@H](C)[C@H]2[C@H](O1)[C@H](O)[C@@]1(C)[C@@H]3CC[C@H]4C(C)(C)[C@@H](O[C@H]5CN(CC)CCO5)CC[C@@]45C[C@@]35CC[C@]21C)C(C)(C)O` returned a pKa of 7.3.

`CCO[C@@H]([C@H]1C[C@@H](C)[C@H]2[C@H](O1)[C@H](O)[C@@]1(C)[C@@H]3CC[C@H]4C(C)(C)[C@@H](O[C@H]5CNCCO5)CC[C@@]45C[C@@]35CC[C@]21C)C(C)(C)O` registered a pKa of 7.8.

In the case of `CCO[C@@H]([C@H]1C[C@@H](C)[C@H]2[C@H](O1)[C@H](O)[C@@]1(C)[C@@H]3CC[C@H]4C(C)(C)[C@@H](O[C@H]5CN(C6(C)COC6)CCO5)CC[C@@]45C[C@@]35CC[C@]21C)C(C)(C)O`, the pKa amounted to 5.2.

Compound `CCO[C@@H]([C@H]1C[C@@H](C)[C@H]2[C@H](O1)[C@H](O)[C@@]1(C)[C@@H]3CC[C@H]4C(C)(C)[C@@H](O[C@H]5CN(CC(=O)N6CCC6)CCO5)CC[C@@]45C[C@@]35CC[C@]21C)C(C)(C)O` returned a pKa of 5.2.

In turn, `CCO[C@@H]([C@H]1C[C@@H](C)[C@H]2[C@H](O1)[C@H](O)[C@@]1(C)[C@@H]3CC[C@H]4C(C)(C)[C@@H](O[C@H]5CN(C6CNC6)CCO5)CC[C@@]45C[C@@]35CC[C@]21C)C(C)(C)O` gave a pKa of 10.7.
